From patent US9585954B2, “Mucosal immunization” (ARIZONA BOARD OF REGENTS FOR AND ON BEHALF OF ARIZONA STATE …, priority 2009, dated 2017)

System: antigen-relevant immune responses to NVCP VLP
Parameters: species or system experimental animals
Settings: in vivo

In the case of CCNCc1nc2c(N)nc3ccccc3c2n1CC(C)(C)O [gardiquimod], the antigen-relevant immune responses is reported as “much more robust immune responses”.
